Our source for the EC50 values is patent publication US10034886B2, “GLP-1 receptor modulators” (Celgene International II SÀRL, priority 2014, dated 2018).

As usually defined, the EC50 is the concentration needed to bring the measured effect to its halfway point.

The target in this test is T1, GLP-1R (Homo sapiens, UniProt P43220).
T1 construct: host or cells: GLP-1R CRE-bla CHO-K1 cells
T1 sequence (P43220 24-463): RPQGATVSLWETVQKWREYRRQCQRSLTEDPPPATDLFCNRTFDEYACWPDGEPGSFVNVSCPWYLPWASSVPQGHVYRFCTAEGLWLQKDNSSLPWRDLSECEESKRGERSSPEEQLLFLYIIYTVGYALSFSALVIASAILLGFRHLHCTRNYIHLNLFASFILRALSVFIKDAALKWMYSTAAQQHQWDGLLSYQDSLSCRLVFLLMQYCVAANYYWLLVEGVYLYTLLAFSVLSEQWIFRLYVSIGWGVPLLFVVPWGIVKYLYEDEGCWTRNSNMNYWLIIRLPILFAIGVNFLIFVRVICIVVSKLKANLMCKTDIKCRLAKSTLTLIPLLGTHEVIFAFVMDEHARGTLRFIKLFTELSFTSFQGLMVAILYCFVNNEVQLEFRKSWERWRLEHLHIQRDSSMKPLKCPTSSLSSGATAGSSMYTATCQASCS
T1 sequence (P01275 100-127 partner limits assumed): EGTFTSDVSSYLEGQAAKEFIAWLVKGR
The test can be described thus: EC20 GLP-1(9-36) PAM cAMP assay: dose response of compound in the presence of fixed concentration of GLP-1(9-36). Type of test: cell-based. As to conditions: dose response of compound in presence of fixed concentration of GLP-1(9-36), GLP-1R CRE-bla CHO-K1 cells, read-out: EC20 GLP-1(9-36) PAM EC50. Summed up: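 Positive allosteric modulation read as cAMP accumulation: compound titrations (12 points) combined with an EC20 level of GLP-1(9-36) on CHO-K1 GLP-1R CRE-bla cells, IBMX present, 30 min, 37 °C, pH 7.4 buffer. Luminescence converted to cAMP via standards; non-linear fit gave EC50 and Emax.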
(In general: Cyclic AMP is a second messenger, typically raised through Gs and lowered through Gi signalling.)
On to `CCCCCCCOc1ccc(-c2cnc(-c3ccc(C[C@H](NC(=O)c4ccc(C(C)(C)C)s4)C(=O)N4CCC(C)(N)C4)cc3)nc2)cc1` (some centres unmarked) [Compound 988], for which the EC50 lay in the range of 5000 to 10000 nM.

Regarding `CCCCCCCOc1ccc(-c2cnc(-c3ccc(C[C@H](NC(=O)c4ccc(C(C)(C)C)s4)C(=O)N4CC(CCN)C4)cc3)nc2)cc1` [Compound 989], the EC50 lay in the range of 800 to 2500 nM.

For `CCCCCCCOc1ccc(-c2cnc(-c3ccc(C[C@H](NC(=O)c4cc5cc(OC)ccc5[nH]4)C(=O)N[C@H](C)C(=O)O)cc3)nc2)cc1` [Compound 990], the EC50 was in the range of 2500 to 5000 nM.

For `CCCCCCCOc1ccc(-c2cnc(-c3ccc(C[C@H](NC(=O)c4ccc(C(C)(C)C)s4)C(=O)N4CCC(CCC(=O)O)C4)cc3)nc2)cc1` (some centres unmarked) [Compound 991], the EC50 lay within 800 to 2500 nM.

Regarding `CCOc1ccc2cc(-c3cnc(-c4ccc(C[C@H](NC(=O)c5ccc(C(C)(C)C)s5)C(=O)N[C@H](C)C(=O)O)cc4)nc3)ccc2c1` [Compound 992], the EC50 lay in the range of 2500 to 5000 nM.

`C[C@@H](NC(=O)[C@H](Cc1ccc(-c2ncc(-c3ccc(C(=O)c4ccccc4)cc3)cn2)cc1)NC(=O)c1ccc(C(C)(C)C)s1)C(=O)O` [Compound 993]: the EC50 is 2500 to 5000 nM.

In the case of `C[C@@H](NC(=O)[C@H](Cc1ccc(-c2ncc(-c3ccc(OCc4ccccc4)c(F)c3)cn2)cc1)NC(=O)c1ccc(C(C)(C)C)s1)C(=O)O` [Compound 994], the EC50 lay in the range of 800 to 2500 nM.

In the case of `CSc1cccc(-c2cnc(-c3ccc(C[C@H](NC(=O)c4ccc(C(C)(C)C)s4)C(=O)N[C@H](C)C(=O)O)cc3)nc2)c1` [Compound 995], the EC50 fell in the range of 5000 to 10000 nM.

Regarding `Cc1cccc(NC(=O)c2cccc(-c3cnc(-c4ccc(C[C@H](NC(=O)c5ccc(C(C)(C)C)s5)C(=O)N[C@H](C)C(=O)O)cc4)nc3)c2)c1C` [Compound 996], the EC50 lay within 800 to 2500 nM.

`COc1ccc2cc(-c3cnc(-c4ccc(C[C@H](NC(=O)c5ccc(C(C)(C)C)s5)C(=O)N[C@H](C)C(=O)O)cc4)nc3)ccc2c1` [Compound 997]: the EC50 lay in the range of 5000 to 10000 nM.

For `CCSc1ccc(-c2cnc(-c3ccc(C[C@H](NC(=O)c4ccc(C(C)(C)C)s4)C(=O)N[C@H](C)C(=O)O)cc3)nc2)cc1` [Compound 998], the EC50 was in the range of 2500 to 5000 nM.

Take `COc1cc(-c2cnc(-c3ccc(C[C@H](NC(=O)c4ccc(C(C)(C)C)s4)C(=O)N[C@H](C)C(=O)O)cc3)nc2)ccc1OCc1ccccc1` [Compound 999]: the EC50 lay in the range of 2500 to 5000 nM.

Turning to `C[C@@H](NC(=O)[C@H](Cc1ccc(-c2ncc(-c3ccc(Oc4ccccc4)cc3)cn2)cc1)NC(=O)c1ccc(C(C)(C)C)s1)C(=O)O` [Compound 1000], the EC50 is 5000 to 10000 nM.

With `C[C@@H](NC(=O)[C@H](Cc1ccc(-c2ncc(-c3ccc(OCc4ccccc4)c(Cl)c3)cn2)cc1)NC(=O)c1ccc(C(C)(C)C)s1)C(=O)O` [Compound 1001], the EC50 lay in the range of 2500 to 5000 nM.

As for `COc1ccc(-c2ccc(-c3cnc(-c4ccc(C[C@H](NC(=O)c5ccc(C(C)(C)C)s5)C(=O)N[C@H](C)C(=O)O)cc4)nc3)cc2)cc1` [Compound 1002], the EC50 was 800 to 2500 nM.

Take `COc1ccc(-c2cnc(-c3ccc(C[C@H](NC(=O)c4ccc(C(C)(C)C)s4)C(=O)N[C@H](C)C(=O)O)cc3)nc2)c(F)c1OCC(C)C` [Compound 1003]: the EC50 was in the range of 5000 to 10000 nM.

Consider `CCOc1cc(-c2cnc(-c3ccc(C[C@H](NC(=O)c4ccc(C(C)(C)C)s4)C(=O)N[C@H](C)C(=O)O)cc3)nc2)ccc1OC(F)(F)F` [Compound 1004], for which the EC50 is 800 to 2500 nM.

For `CCCOc1ccc(-c2cnc(-c3ccc(C[C@H](NC(=O)c4ccc(C(C)(C)C)s4)C(=O)N[C@H](C)C(=O)O)cc3)nc2)cc1C` [Compound 1005], the 50% effective concentration (EC50) lay within 800 to 2500 nM.

`Cc1cc(C)n(-c2ccc(-c3cnc(-c4ccc(C[C@H](NC(=O)c5ccc(C(C)(C)C)s5)C(=O)N[C@H](C)C(=O)O)cc4)nc3)cc2)n1` [Compound 1006]: the EC50 lay in the range of 800 to 2500 nM.

For the molecule `Cc1cc(-c2cnc(-c3ccc(C[C@H](NC(=O)c4ccc(C(C)(C)C)s4)C(=O)N[C@H](C)C(=O)O)cc3)nc2)ccc1OC(C)C` [Compound 1007], the half-maximal effective concentration (EC50) fell in the range of 800 to 2500 nM.
